From paper PMC7439263 (ACS Omega, 2020)

Key:
[1] = system: α-Glucosidase (from Saccharomyces cerevisiae); experiment: Assay for α-glucosidase inhibitory activity; format: biochemical; conditions: for α-glucosidase inhibitory activity compared to acarbose (in words): Figure 3, 150 μM, p < 0.05; for total activity α-glucosidase: total activity = amount (mg/kg)/IC50 (mg/mL); for IC50: read-out: IC50 α-glucosidase, mean ± SD (n = 3)
[2] = system: α-Glucosidase (from Saccharomyces cerevisiae); experiment: Inhibitory kinetics analysis against the α-glucosidase enzyme; format: biochemical; conditions: Lineweaver–Burk plot analysis, sucrose substrate
[3] = STZ-induced diabetic rats ref 46; cited from earlier work
[4] = system: glycogenic enzymes; conditions: rats ref 47; cited from earlier work
[5] = molecular target: T1, α-amylase (from the porcine pancreas) (Sus scrofa, UniProt P00690); experiment: biochemical; format: biochemical; conditions: for IC50: IC50 α-amylase, mean ± SD (n = 3)
T1 sequence (P00690 16-511): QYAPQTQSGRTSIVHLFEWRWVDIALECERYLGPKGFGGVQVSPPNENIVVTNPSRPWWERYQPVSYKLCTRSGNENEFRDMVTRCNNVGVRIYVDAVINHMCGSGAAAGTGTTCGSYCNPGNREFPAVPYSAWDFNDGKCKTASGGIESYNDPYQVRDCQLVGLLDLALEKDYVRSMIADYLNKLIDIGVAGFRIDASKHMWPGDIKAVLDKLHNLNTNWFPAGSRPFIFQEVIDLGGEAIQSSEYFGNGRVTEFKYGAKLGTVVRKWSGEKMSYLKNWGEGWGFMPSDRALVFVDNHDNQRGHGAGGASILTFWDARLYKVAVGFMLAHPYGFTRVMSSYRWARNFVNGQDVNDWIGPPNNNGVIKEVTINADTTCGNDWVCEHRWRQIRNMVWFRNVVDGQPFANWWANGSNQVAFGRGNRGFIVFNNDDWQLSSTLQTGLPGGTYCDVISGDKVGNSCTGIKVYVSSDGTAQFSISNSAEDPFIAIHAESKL

[6] = system: glycogen phosphorylase; conditions: cited from earlier work
[7] = system: α-glucosidase; conditions: cited from earlier work
[8] = system: α-amylase; conditions: cited from earlier work
[9] = in vivo ref 49; cited from earlier work

SMILES: CC1(C)CC[C@]2(C(=O)O)CC[C@]3(C)C(=CC[C@@H]4[C@@]5(C)CC[C@H](O)C(C)(C)[C@@H]5CC[C@]43C)[C@@H]2C1 [oleanolic acid 1, oleanolic acid]
- α-glucosidase inhibitory activity compared to acarbose (in words) [1]: higher than that of acarbose
- total activity α-glucosidase [1]: 5359.5
- inhibition type against α-glucosidase [2]: partial mixed inhibitor
- inhibition type against α-glucosidase ([2]; listed as 1): mixed-type
- blood glucose levels [3]: lower blood glucose levels
- glycogen levels and glycogenic enzymes [4]: reduced glycogen levels and glycogenic enzymes

SMILES: OCCc1ccc(O)c(O)c1 [hydroxytyrosol 7, hydroxytyrosol]
- α-glucosidase inhibitory activity at highest tested concentration ([1]; 1000 μM): less than 10%
- IC50 [1]: > 1000 µM
- IC50 [5]: > 500 µM
- inhibition at 500 µM ([5]; read-out: α-amylase inhibitory activity at highest tested concentration): < 10%

SMILES: CC1(C)CC[C@]2(C(=O)O)CC[C@]3(C)C(=CC[C@@H]4[C@@]5(C)C[C@@H](O)[C@H](O)C(C)(C)[C@@H]5CC[C@]43C)[C@@H]2C1 [maslinic acid 2, maslinic acid]
- α-glucosidase inhibitory activity compared to acarbose (in words) [1]: higher than that of acarbose
- IC50 [1]: 34.5 ± 1.4 µM
- total activity α-glucosidase [1]: 11042.9
- α-amylase inhibitory activity compared to acarbose (in words) [5]: acarbose had higher activity than them
- IC50 [5]: 67 ± 5.4 µM
- total activity α-amylase ([5]; total activity = amount (mg/kg)/IC50 (mg/mL)): 5678.2
- blood glucose levels / glycogen phosphorylase inhibition [6]: reduce blood glucose levels by inhibiting glycogen phosphorylase

SMILES: C[C@H]1[C@H](C)CC[C@]2(C(=O)O)CC[C@]3(C)C(=CC[C@@H]4[C@@]5(C)C[C@@H](O)[C@H](O)C(C)(C)[C@@H]5CC[C@]43C)[C@H]12 [corosoric acid]
- α-glucosidase inhibitory activity in vitro (in words) [7]: strong inhibitory activity
- α-amylase inhibitory activity in vitro (in words) [8]: strong inhibitory activity
- post-challenge plasma glucose levels [9]: significant effect on lowering post-challenge plasma glucose levels
